Measurements taken from article PMC5681660, “Reduced hepatitis B and D viral entry using clinically applied drugs as novel inhibitors of the bile acid transporter NTCP” (Scientific Reports, 2017).
Structures can show the parent of a compound that is named as a salt.

How the values were obtained:
[1] = biological target: T1, human NTCP (Homo sapiens, UniProt Q14973); experiment: Screening taurocholate uptake assay (96-well, [14C]taurocholate, 10 µM drug); conditions: for B-score functional assay: 10 µM drug; for position among the hits of the screen (combined ranking of both screening assays): 1280 drugs at 10 µM, TC uptake and Myrcludex B binding screens combined
T1 sequence (Q14973 1-349): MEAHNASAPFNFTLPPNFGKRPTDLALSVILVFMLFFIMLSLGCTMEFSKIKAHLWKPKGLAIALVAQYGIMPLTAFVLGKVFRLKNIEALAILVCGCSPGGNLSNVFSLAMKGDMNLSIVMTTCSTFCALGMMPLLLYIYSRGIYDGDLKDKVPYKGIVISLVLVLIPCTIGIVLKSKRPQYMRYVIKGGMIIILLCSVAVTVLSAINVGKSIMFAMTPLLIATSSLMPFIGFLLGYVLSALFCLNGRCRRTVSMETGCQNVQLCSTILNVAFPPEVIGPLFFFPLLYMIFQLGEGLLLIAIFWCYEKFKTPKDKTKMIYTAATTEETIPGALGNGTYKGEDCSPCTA

[2] = biological target: T1, human NTCP; experiment: Screening fluorescent competitive Myrcludex B-FITC binding assay (96-well, 10 µM drug); conditions: 10 µM drug
[3] = Prestwick library screen, B-score of taurocholate uptake
[4] = combined ranking from functional and binding assay B-scores
[5] = Prestwick library screen, B-score of Myrcludex B-FITC binding
[6] = combined ranking from functional and binding screening assays
[7] = screen, Myrcludex B-FITC binding
[8] = Prestwick library screen, taurocholate uptake
[9] = ranking score beside the functional and binding assay B-scores of the screen
[10] = Prestwick library screen, Myrcludex B-FITC binding
[11] = combined ranking of functional and binding screening assays
[12] = ranking over the functional and the binding screening assay
[13] = screening taurocholate uptake, B-score

Row | Molecule | Ranking score [1, 11] | B-score functional assay ([1]; screening taurocholate uptake) | Ranking score [1, 12] | also measured
1 | Br.COc1ccc2c(c1)[C@]13CCCC[C@@H]1[C@H](C2)N(C)CC3.O | – | – | – | B-score functional assay [1, 3]: 0.044; Ranking score [1, 4]: 928.917; B-score binding assay [2, 5]: 2.674
2 | COc1cc2c(cc1OC)C(C)NCC2.Cl (centres unmarked) | – | – | – | B-score functional assay [1, 3]: 2.498; Ranking score [1, 4]: 1023.83; B-score binding assay [2, 5]: 0.343
3 | Cc1ccc(Cl)c(Nc2ccccc2C(=O)[O-])c1Cl.O.[Na+] | – | – | – | Ranking score [1, 6]: 386.518; B-score functional assay ([1]; screen, taurocholate uptake): -1.621; B-score binding assay [2, 7]: 0.415
4 | Cl.Cl.Cl.Cl.Cl.NCCNCCNCCNCCN | – | – | – | B-score functional assay [1, 8]: -0.035; Ranking score [1, 9]: 758.136; B-score binding assay [2, 10]: 0.678
5 | CCCCC(C)(O)C/C=C/[C@H]1[C@H](O)CC(=O)[C@@H]1CCCCCCC(=O)OC (mixture of isomers) [Misoprostol] | – | – | – | B-score functional assay [1, 8]: -0.231; Ranking score [1, 9]: 671.728; B-score binding assay [2, 10]: 0.662
6 | CN(N=O)C(=O)N[C@H]1C(O)O[C@H](CO)[C@@H](O)[C@@H]1O (mixture of isomers) [Streptozotocin] | – | – | – | Ranking score [1, 6]: 307.444; B-score functional assay ([1]; screen, taurocholate uptake): -0.84; B-score binding assay [2, 7]: -0.654
7 | Cl.NCC(O)c1ccc(O)cc1 (racemic) [(+,-)-Octopamine hydrochloride] | – | – | – | B-score functional assay [1, 3]: 2.044; Ranking score [1, 4]: 930.549; B-score binding assay [2, 5]: 0.069
8 | NCC(CC(=O)O)c1ccc(Cl)cc1 (racemic) [Baclofen (R,S)] | – | – | – | B-score functional assay [1, 3]: 2.955; Ranking score [1, 4]: 1069.07; B-score binding assay [2, 5]: 0.531
9 | CSc1nc2cc(Cl)c(Oc3cccc(Cl)c3Cl)cc2[nH]1 [Triclabendazole] | 541.575 | -0.202 | – | –
10 | Oc1cc(Cl)ccc1Oc1ccc(Cl)cc1Cl [Triclosan] | – | -1.77 | 149.432 | –
11 | CC[N+](CC)(CC)CCC(O)(c1ccccc1)C1CCCCC1.[Cl-] (centres unmarked) [Tridihexethyl chloride] | 474.251 | 0.93 | – | –
12 | Cl.OC(CCN1CCCCC1)(c1ccccc1)C1CCCCC1 (centres unmarked) [Trihexyphenidyl-D,L Hydrochloride] | 472.758 | 0.458 | – | –
13 | CCC(COC(=O)c1cc(OC)c(OC)c(OC)c1)(c1ccccc1)N(C)C (centres unmarked) [Trimebutine] | 579.884 | -0.018 | – | –
14 | COc1cc(C(=O)NCc2ccc(OCCN(C)C)cc2)cc(OC)c1OC [Trimethobenzamide hydrochloride] | 1250.5 | – | – | B-score functional assay [1, 13]: 2.997
15 | CC(CN(C)C)CN1c2ccccc2CCc2ccccc21.O=C(O)/C=C\C(=O)O (centres unmarked) [Trimipramine maleate salt] | – | -0.962 | 129.248 | –
16 | CN(C)CCN(Cc1ccccc1)c1ccccn1 [Tripelennamine hydrochloride] | 512.348 | -0.493 | – | –
17 | Cc1c(C)c2c(c(C)c1O)CCC(C)(C(=O)O)O2 (centres unmarked) [Trolox] | – | -2.983 | 114.263 | –
18 | CN1[C@@H]2CC[C@H]1C[C@@H](OC(=O)c1c[nH]c3ccccc13)C2 [Tropisetron HCl] | 543.985 | -1.094 | – | –
19 | CC(C)(C)NCC(O)c1ccccc1Cl (centres unmarked) [Tulobuterol] | 1214.72 | – | – | B-score functional assay [1, 13]: 2.873
20 | CC(C)C[C@H](NC(=O)[C@@H](O)[C@H](N)Cc1ccccc1)C(=O)O [Ubenimex] | 608.5 | 0.218 | – | –
21 | C[C@H](CCC(=O)O)[C@H]1CC[C@H]2[C@@H]3[C@@H](O)C[C@@H]4C[C@H](O)CC[C@]4(C)[C@H]3CC[C@]12C [Urosiol] | – | -4.542 | 126.965 | –

Row | Molecule | Ranking score [1, 11] | B-score functional assay ([1]; screening taurocholate uptake) | Ranking score [1, 12] | also measured
22 | CC(C)[C@H](N)C(=O)OCCOCn1cnc2c(=O)[nH]c(N)nc21 [Valacyclovir hydrochloride] | 518.986 | 0.32 | – | –
23 | CCCc1nc(C)c2c(=O)[nH]c(-c3cc(S(=O)(=O)N4CCN(CC)CC4)ccc3OCC)nn12 [Vardenafil] | 546.31 | -0.039 | – | –
24 | Clc1ccc(Nc2nnc(Cc3ccncc3)c3ccccc23)cc1 [Vatalanib] | – | -2.979 | 181.191 | –
25 | COc1ccc(C(CN(C)C)C2(O)CCCCC2)cc1 (centres unmarked) [Venlafaxine] | – | – | – | Ranking score [1, 6]: 459.852; B-score functional assay ([1]; screen, taurocholate uptake): -0.102
26 | O=C(CCCCCCC(=O)Nc1ccccc1)NO [Vorinostat] | 583.003 | -0.284 | – | –
27 | COC(=O)[C@@H]1[C@H]2C[C@H]3c4[nH]c5ccccc5c4CCN3C[C@@H]2CC[C@@H]1O [Yohimbine hydrochloride] | – | -1.965 | 229.785 | –
28 | CCN(C(C)=O)c1cccc(-c2ccnc3c(C#N)cnn23)c1 [Zaleplon] | 584.018 | 1.229 | – | –
29 | CCCOc1ccccc1-c1nc2nn[nH]c2c(=O)[nH]1 [Zaprinast] | – | -1.838 | 188.481 | –
30 | CN(C)C/C=C(\c1ccc(Br)cc1)c1cccnc1.Cl.Cl.O [Zimelidine dihydrochloride monohydrate] | – | -1.216 | 266.786 | –
31 | Cc1cc(CC(=O)[O-])n(C)c1C(=O)c1ccc(Cl)cc1.[Na+] [Zomepirac sodium salt] | 527.712 | -0.802 | – | –
32 | CN1CCN(C(=O)OC2c3nccnc3C(=O)N2c2ccc(Cl)cn2)CC1 (centres unmarked) [Zopiclone] | – | -0.919 | 176.746 | –
33 | Cl.Cl.OCCN1CCN(CC/C=C2/c3ccccc3Sc3ccc(Cl)cc32)CC1 [Zuclopenthixol dihydrochloride] | – | -0.306 | 243.28 | –
34 | C[C@H](CCC(=O)O)[C@H]1CC[C@H]2[C@@H]3[C@H](O)C[C@@H]4C[C@H](O)CC[C@]4(C)[C@H]3CC[C@]12C [chenodeoxycholic acid] | – | – | – | position among the hits of the screen (combined ranking of both screening assays) [1]: ≤ 150
35 | O=C1[C@H](CC[C@H](O)c2ccc(F)cc2)[C@@H](c2ccc(O)cc2)N1c1ccc(F)cc1 [ezetimibe, reference compound] | – | -4.28 | 30.4959 | NTCP inhibition in the screen (in words) ([1]; 10 µM, both screening assays): confirmed NTCP inhibition; position among the hits of the screen (combined ranking of both screening assays) [1]: ≤ 150
36 | C[C@H](CCC(=O)O)[C@H]1CC[C@H]2[C@@H]3CC[C@@H]4C[C@H](O)CC[C@]4(C)[C@H]3CC[C@]12C [litocholic acid] | – | – | – | position among the hits of the screen (combined ranking of both screening assays) [1]: ≤ 150
37 | C[C@H](CCC(=O)O)[C@H]1CC[C@H]2[C@@H]3[C@@H](O)C[C@@H]4C[C@H](O)CC[C@]4(C)[C@H]3CC[C@]12C [ursodeoxycholic acid, reference compound] | – | – | – | position among the hits of the screen (combined ranking of both screening assays) [1]: ≤ 150; position among the hits of the screen (combined ranking of both screening assays) ([1]; listed as Ursodeoxycholic acid): ≤ 100
38 | (S)-(-)-Cycloserine | – | -1.227 | 89.398 | –
39 | Colistin sulfate | – | -0.917 | – | –
40 | R(-) Apomorphine hydrochloride hemihydrate | 1173.62 | – | – | B-score functional assay [1, 13]: 2.876
41 | Verteporfin | – | -2.252 | 33.9116 | –
